Results taken from patent publication US20060069132A1, “Azolecarboxamide herbicides” (priority 2004, published 2006).

Columns and labels:
corn = assay: Test B pre-/postemergence herbicide test; type: in vivo, Zea mays
Procedure, shortened: (§1)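 Visual rating, 0 (no effect) to 100 (complete control), versus untreated controls after 13–15 d in greenhouse. Pre- and postemergence applications (postemergence plants 2–18 cm, 1–4 leaves); flooded paddy arm at 2-leaf stage. Compounds in non-phytotoxic solvent plus surfactant.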

blackgrass = assay: Test B postemergence herbicide test; type: in vivo, Alopecurus myosuroides; conditions: scale 0 (no effect) to 100 (complete control)
Procedure, shortened: (§2)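 Plants grow to 1- to 4-leaf stage (2–18 cm) for postemergence spraying, or to 2-leaf stage for the paddy test. Formulated compound is applied. Greenhouse holding lasts 13–15 days. Response is scored visually relative to controls, 0 no effect to 100 complete control; a dash means no result.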

[1] = system: small flower umbrella sedge; assay: Test B flooded paddy test; type: in vivo, Cyperus difformis; conditions: 1000 g ai/ha, visual rating, scale 0 to 100 (0 no effect, 100 complete control), 13 to 15 days
Procedure, shortened: as §2

rice = assay: Test B flooded paddy test; type: in vivo, Oryza sativa; conditions: 1000 g ai/ha, visual rating, scale 0 to 100 (0 no effect, 100 complete control), 13 to 15 days
Procedure, shortened: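 Read-out: visual comparison with controls, scored 0 to 100, where 100 means complete control and 0 no effect. Formulated chemicals were applied postemergence to plants 2–18 cm tall (1- to 4-leaf), or to flooded-paddy plants at the 2-leaf stage, then held 13 to 15 days under glass.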

cocklebur = assay: Test B pre-/postemergence herbicide test; type: in vivo, Xanthium strumarium
Procedure, shortened: (§3)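 Species tested were Echinochloa crus-galli, Ipomoea coccinea, Xanthium strumarium and Oryza sativa, treated both before emergence and at the 1- to 4-leaf stage; rice and barnyardgrass were also tested under flooding at 2 leaves. Greenhouse incubation lasted 13–15 days before visual 0–100 scoring.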

wheat = assay: Test B postemergence herbicide test; type: in vivo, Triticum aestivum; parameters: key to Wheat plant response rating: 0 = no effect, 100 = complete control; conditions: scale 0 (no effect) to 100 (complete control)
Procedure, shortened: as §2

wild oat = assay: Test B postemergence herbicide test; type: in vivo, Avena fatua; conditions: scale 0 (no effect) to 100 (complete control)
Procedure, shortened: as §2

pigweed = assay: Test B pre-/postemergence herbicide test; type: in vivo, Amaranthus retroflexus
Procedure, shortened: as §1

ducksalad = assay: Test B flooded paddy test; type: in vivo, Heteranthera limosa; conditions: 1000 g ai/ha, visual rating, scale 0 to 100 (0 no effect, 100 complete control), 13 to 15 days
Procedure, shortened: as §2

barnyardgrass [2] = assay: Test B pre-/postemergence herbicide test; type: in vivo, Echinochloa crus-galli
Procedure, shortened: as §3

Surinam grass = assay: Test B pre-/postemergence herbicide test; type: in vivo, Urochloa decumbens
Procedure, shortened: as §1

giant foxtail = assay: Test B pre-/postemergence herbicide test; type: in vivo, Setaria faberi
Procedure, shortened: as §1

barnyardgrass [3] = assay: Test B flooded paddy test; type: in vivo, Echinochloa crus-galli; conditions: 1000 g ai/ha, visual rating, scale 0 to 100 (0 no effect, 100 complete control), 13 to 15 days
Procedure, shortened: as §2

lambsquarters = assay: Test B pre-/postemergence herbicide test; type: in vivo, Chenopodium album
Procedure, shortened: as §1

morningglory = assay: Test B pre-/postemergence herbicide test; type: in vivo, Ipomoea coccinea
Procedure, shortened: as §3

large crabgrass = assay: Test B pre-/postemergence herbicide test; type: in vivo, Digitaria sanguinalis
Procedure, shortened: as §1

[4] = Postemergence, 500 g ai/ha, visual rating after 13 to 15 days, scale 0 (no effect) to 100 (complete control)
[5] = Preemergence, 500 g ai/ha, scale 0 to 100
[6] = postemergence, 125 g ai/ha, visual rating, scale 0 (no effect) to 100 (complete control)
[7] = preemergence, 125 g ai/ha, 0 to 100 scale, 0 is no effect, 100 is complete control
[8] = Postemergence, 500 g ai/ha, visual rating after 13 to 15 days
[9] = postemergence, 125 g ai/ha, visual rating

CCNC(=O)c1cc(NC(=O)c2cc(C(C)(C)C)nn2CC)ccc1F [Compound 58]
Plant response rating, Corn (corn; [4]): 20 | Corn plant response rating (corn; [5]): 30 | Corn plant response rating (corn; [6]): 10 | Plant response rating, Corn (corn; [7]): 20 | Plant response rating, Blackgrass (blackgrass; [8]): 30 | Blackgrass plant response rating (blackgrass; [9]): 10 | Sedge, Umbrella plant response rating [1]: 80 | Rice plant response rating (rice): 60 | Plant response rating, Cocklebur (cocklebur; [4]): 100 | Cocklebur plant response rating (cocklebur; [5]): 100 | Cocklebur plant response rating (cocklebur; [6]): 80 | Plant response rating, Cocklebur (cocklebur; [7]): 0 | Plant response rating, Wheat (wheat; [8]): 20 | Wheat plant response rating (wheat; [9]): 0 | Plant response rating, Oat, Wild (wild oat; [8]): 30 | Oat, Wild plant response rating (wild oat; [9]): 20 | Plant response rating, Pigweed (pigweed; [4]): 90 | Pigweed plant response rating (pigweed; [5]): 100 | Pigweed plant response rating (pigweed; [6]): 60 | Plant response rating, Pigweed (pigweed; [7]): 100 | Ducksalad plant response rating (ducksalad): 80 | Plant response rating, Barnyardgrass (barnyardgrass [2]; [4]): 60 | Barnyardgrass plant response rating (barnyardgrass [2]; [5]): 100 | Barnyardgrass plant response rating (barnyardgrass [2]; [6]): 30 | Plant response rating, Barnyardgrass (barnyardgrass [2]; [7]): 90 | Plant response rating, Surinam Grass (Surinam grass; [4]): 30 | Surinam Grass plant response rating (Surinam grass; [5]): 60 | Surinam Grass plant response rating (Surinam grass; [6]): 10 | Plant response rating, Surinam Grass (Surinam grass; [7]): 30 | Plant response rating, Foxtail, Giant (giant foxtail; [4]): 20 | Foxtail, Giant plant response rating (giant foxtail; [5]): 100 | Foxtail, Giant plant response rating (giant foxtail; [6]): 20 | Plant response rating, Foxtail, Giant (giant foxtail; [7]): 100 | Barnyardgrass plant response rating (barnyardgrass [3]): 80 | Plant response rating, Lambsquarters (lambsquarters; [4]): 90 | Lambsquarters plant response rating (lambsquarters; [5]): 100 | Lambsquarters plant response rating (lambsquarters; [6]): 90 | Plant response rating, Lambsquarters (lambsquarters; [7]): 100 | Plant response rating, Morningglory (morningglory; [4]): 30 | Morningglory plant response rating (morningglory; [5]): 30 | Morningglory plant response rating (morningglory; [6]): 20 | Plant response rating, Crabgrass, Large (large crabgrass; [4]): 30 | Crabgrass, Large plant response rating (large crabgrass; [5]): 100 | Crabgrass, Large plant response rating (large crabgrass; [6]): 20 | Plant response rating, Crabgrass, Large (large crabgrass; [7]): 100
